# Source: patent US12121540B2, “CBL inhibitors and compositions for use in adoptive cell therapy” (Nurix Therapeutics, Inc., priority 2019, dated 2024)
# What was measured:
# OT-1 cells = experiment: Re-stimulation of harvested splenocytes with OVA Class I peptide; assay type: cell-based, mouse
# Procedure: The expanded OT-1 cells were characterized by FACS analysis and transferred into E.G7-OVA mice, which bear ovalbumin (OVA) expressing tumors. Following in vivo transfer of expanded OT-1 cells, antitumor response was monitored over time and the quality and quantity of immune response was assessed at various time points. Analysis included FACS analysis on blood, tumor, and spleen samples. Analysis also included re-stimulation of splenocytes with OVA Class I peptide to evaluate the multifunctionality of the antigen-specific effector T cells.
# Expanded OT-1 cells were assessed from splenocytes 11 days after transfer. Harvested splenocytes were re-stimulated with OVA Class I peptide for 72 hours.
# Expanded OT-1 cells were assessed from splenocytes 11 days after transfer. Harvested splenocytes were re-stimulated with OVA Class I peptide for 4 hours.
# Expanded OT-1 cells were assessed from splenocytes 11 days after transfer. Harvested splenocytes were re-stimulated with OVA Class I peptide for 24 hours.
# [1] = tested on: human T cells from peripheral blood mononuclear cells; experiment: Expansion of CMV pp65 reactive T cells from peripheral blood mononuclear cells; assay type: cell-based; conditions: for Expansion of T cells from PBMC, total cell number relative to IL-2 alone: day 11
# Description: At day eleven, cells were pooled and counted, and immunophenotyped at day 11 by flow cytometry by measuring expression of lineage (CD4, CD8) and differentiation (including CD45RA, CD45RO, CD95, CCR7, CD62L, TCF1, PD-1, TIM3, LAG3) markers.
# [2] = tested on: human tumor-infiltrating lymphocytes (TIL); experiment: Flow cytometry immunophenotyping of expanded TIL; assay type: cell-based; conditions: for CD4 TCM CD62L+ CCR7+, percentage of total TIL cell number / CD4 TEM CD62L− CCR7−, percentage of total TIL cell number / CD8 TCM CD62L+ CCR7−, percentage of total TIL cell number / CD8 TEM CD62L− CCR7−, percentage of total TIL cell number: TIL1 population, day 28
# Procedure: The plates were placed in a humidified 37° C. incubator with 5% CO2. Half of the medium was replaced every two days after culture initiation. […] Subsequently, half the media was replaced thrice weekly, cultures were split to maintain a cell density of 1×10^6 cells/mL. […] Mitochondrial markers including, Mitotracker, Mitoprobe, and 2-NBDG may also be used to assess differentiation and/or activation of cells.
# T lymphocytes were defined based on lineage and differentiation marker expression according to the developmental model (Restifo, Blood, 124:476-477, 2014), as shown in Table 4.
# [3] = Compound stability in complete RPMI with 10% human serum (mass spectrometry); assay type: physicochemical
# Procedure: To assess compound stability, at day 1, 1 μM compound 103 or DMSO was added to complete RMPI containing 10% human serum and stored at either 4° C., 22° C. or 37° C. over an 11 day time period. Concentration of compound 103 was assessed at each indicated timepoint and storage temperature by mass spectrometry. Compound 103 was stable for at least 11 days in RPMI medium (FIG. 33).
# CD4/8+ T cells = experiment: Intracellular IFN-γ after PMA/ionomycin stimulation of expanded T cells; assay type: cell-based, human; conditions: IL-2 and Cbl inhibitor expanded T cells; PMA/ionomycin 6 h
# Procedure: T cell activity was determined by analysis of cytokine secretion. To investigate whether these expanded T cells are capable of responding to extracellular stimulation, T cells were stimulated with 25 ng/mL phorbol myristate acetate (PMA) and 0.5 μM ionomycin. After 90 min of stimulation, monensin, 1:50, (GolgiStop, BD Biosciences) was added. After 6 h, cells were stained for surface expression of CD4+, CD8+, CD45RA+, CD95+, CCR7+, CD62L+, and subsequently, fixed, permeabilized and stained for intracellular cytokine, IFN-γ.
# CD8+ and CD4+ TIL = experiment: CD107a and granzyme B in TIL after anti-CD3/CD28 stimulation; assay type: cell-based, human
# Procedure: In the context of cytotoxicity, granzyme B (Grb), a protease secreted to mediate apoptosis, was assessed.
# TIL = experiment: Cytokine and chemokine secretion of expanded TIL (Luminex); assay type: cell-based, human
# Procedure: Also assessed were cytokines and chemokines secreted during the 14 day expansion in GREX.
# Supernatants were assessed by Luminex.
# [4] = Cbl inhibitor expanded, 4 hours restimulation
# [5] = IL-2 + compound 103, upon stimulation
# [6] = expanded with IL2 + compound 103, anti-CD3/CD28 6 hours
smiles,measurement,setting,value
C[C@@H]1CN(Cc2cc3c(c(C(F)(F)F)c2)CN(c2cccc(C4(Cc5nncn5C)COC4)c2)C3=O)CCC1(F)F [compound 103],Exhaustion markers (PD1 and TIM3) in multifunctional cells vs IL-2 alone,OT-1 cells; [4],lower level of expression of exhaustion markers
same,Multifunctionality (IFN-gamma and TNF-alpha double positive cells) vs IL-2 alone,OT-1 cells; [4],comparable multifunctionality
same,IL-2 production upon restimulation,"OT-1 cells; Cbl inhibitor expanded, 24 hours restimulation",increased IL-2 production upon restimulation
same,Proliferation in response to peptide restimulation vs IL-2 alone,"OT-1 cells; Cbl inhibitor expanded, splenocytes 11 days after transfer, 72 hours",superior intrinsic ability to proliferate
same,Proliferation in response to peptide restimulation,"OT-1 cells; expanded with Cbl inhibitor and IL-2, 72 hours",even greater intrinsic ability to proliferate
same,Expansion of T cells,[1]; Cbl inhibitor in the absence of IL-2,considerable expansion of T cells
same,"Expansion of T cells from PBMC, total cell number relative to IL-2 alone","[1]; Donor 1, 0.1 μM Cbl-i",12%
same,"Expansion of T cells from PBMC, total cell number relative to IL-2 alone","[1]; Donor 1, 1.0 μM Cbl-i",12%
same,"Expansion of T cells from PBMC, total cell number relative to IL-2 alone","[1]; Donor 1, 10 μM Cbl-i",44%
same,"Expansion of T cells from PBMC, total cell number relative to IL-2 alone","[1]; Donor 1, IL-2 + 0.1 μM Cbl-i",614%
same,"Expansion of T cells from PBMC, total cell number relative to IL-2 alone","[1]; Donor 1, IL-2 + 1.0 μM Cbl-i",1007%
same,"Expansion of T cells from PBMC, total cell number relative to IL-2 alone","[1]; Donor 1, IL-2 + 10 μM Cbl-i",898%
same,"Expansion of T cells from PBMC, total cell number relative to IL-2 alone","[1]; Donor 2, 0.1 μM Cbl-i",70%
same,"Expansion of T cells from PBMC, total cell number relative to IL-2 alone","[1]; Donor 2, 1.0 μM Cbl-i",95%
same,"Expansion of T cells from PBMC, total cell number relative to IL-2 alone","[1]; Donor 2, 10 μM Cbl-i",45%
same,"Expansion of T cells from PBMC, total cell number relative to IL-2 alone","[1]; Donor 2, IL-2 + 0.1 μM Cbl-i",2059%
same,"Expansion of T cells from PBMC, total cell number relative to IL-2 alone","[1]; Donor 2, IL-2 + 1.0 μM Cbl-i",170%
same,"Expansion of T cells from PBMC, total cell number relative to IL-2 alone","[1]; Donor 2, IL-2 + 10 μM Cbl-i",2161%
same,"Expansion of T cells from PBMC, total cell number relative to IL-2 alone","[1]; Donor 3, 0.1 μM Cbl-i",175%
same,"Expansion of T cells from PBMC, total cell number relative to IL-2 alone","[1]; Donor 3, 1.0 μM Cbl-i",75%
same,"Expansion of T cells from PBMC, total cell number relative to IL-2 alone","[1]; Donor 3, 10 μM Cbl-i",38%
same,"Expansion of T cells from PBMC, total cell number relative to IL-2 alone","[1]; Donor 3, IL-2 + 0.1 μM Cbl-i",3622%
same,"Expansion of T cells from PBMC, total cell number relative to IL-2 alone","[1]; Donor 3, IL-2 + 1.0 μM Cbl-i",2145%
same,"Expansion of T cells from PBMC, total cell number relative to IL-2 alone","[1]; Donor 3, IL-2 + 10 μM Cbl-i",1151%
same,"CD4 TCM CD62L+ CCR7+, percentage of total TIL cell number",[2]; 0.1 μM Cbl-i,2.8%
same,"CD4 TEM CD62L− CCR7−, percentage of total TIL cell number",[2]; 0.1 μM Cbl-i,67.2%
same,"CD8 TCM CD62L+ CCR7−, percentage of total TIL cell number",[2]; 0.1 μM Cbl-i,19.5%
same,"CD8 TEM CD62L− CCR7−, percentage of total TIL cell number",[2]; 0.1 μM Cbl-i,37.2%
same,"CD4 TCM CD62L+ CCR7+, percentage of total TIL cell number",[2]; 1.0 μM Cbl-i,8.0%
same,"CD4 TEM CD62L− CCR7−, percentage of total TIL cell number",[2]; 1.0 μM Cbl-i,24.2%
same,"CD8 TCM CD62L+ CCR7−, percentage of total TIL cell number",[2]; 1.0 μM Cbl-i,20.2%
same,"CD8 TEM CD62L− CCR7−, percentage of total TIL cell number",[2]; 1.0 μM Cbl-i,15.6%
same,"CD4 TCM CD62L+ CCR7+, percentage of total TIL cell number",[2]; 10 μM Cbl-i,15.8%
same,"CD4 TEM CD62L− CCR7−, percentage of total TIL cell number",[2]; 10 μM Cbl-i,66.7%
same,"CD8 TCM CD62L+ CCR7−, percentage of total TIL cell number",[2]; 10 μM Cbl-i,29.7%
same,"CD8 TEM CD62L− CCR7−, percentage of total TIL cell number",[2]; 10 μM Cbl-i,13.2%
same,"CD4 TCM CD62L+ CCR7+, percentage of total TIL cell number",[2]; IL-2 + 0.1 μM Cbl-i,12.1%
same,"CD4 TEM CD62L− CCR7−, percentage of total TIL cell number",[2]; IL-2 + 0.1 μM Cbl-i,49.3%
same,"CD8 TCM CD62L+ CCR7−, percentage of total TIL cell number",[2]; IL-2 + 0.1 μM Cbl-i,20.3%
same,"CD8 TEM CD62L− CCR7−, percentage of total TIL cell number",[2]; IL-2 + 0.1 μM Cbl-i,35.5%
same,"CD4 TCM CD62L+ CCR7+, percentage of total TIL cell number",[2]; IL-2 + 1.0 μM Cbl-i,15.2%
same,"CD4 TEM CD62L− CCR7−, percentage of total TIL cell number",[2]; IL-2 + 1.0 μM Cbl-i,57.3%
same,"CD8 TCM CD62L+ CCR7−, percentage of total TIL cell number",[2]; IL-2 + 1.0 μM Cbl-i,16.5%
same,"CD8 TEM CD62L− CCR7−, percentage of total TIL cell number",[2]; IL-2 + 1.0 μM Cbl-i,43.3%
same,"CD4 TCM CD62L+ CCR7+, percentage of total TIL cell number",[2]; IL-2 + 10 μM Cbl-i,0%
same,"CD4 TEM CD62L− CCR7−, percentage of total TIL cell number",[2]; IL-2 + 10 μM Cbl-i,55.8%
same,"CD8 TCM CD62L+ CCR7−, percentage of total TIL cell number",[2]; IL-2 + 10 μM Cbl-i,20.5%
same,"CD8 TEM CD62L− CCR7−, percentage of total TIL cell number",[2]; IL-2 + 10 μM Cbl-i,35.4%
same,Selective expansion of CD8+ T lymphocytes,"[2]; malignant ovarian tumor sample, FIG. 7",selectively expand CD8+ T lymphocytes
same,Stability in RPMI medium,"[3]; 1 μM, complete RPMI with 10% human serum, 4° C., 22° C. or 37° C.",at least 11 days
same,Stability at multiple temperatures,"[3]; 4° C.-37° C., 11 day period, FIG. 33",stable
same,CD4/8+ T cells capable of producing IFN-γ,CD4/8+ T cells,greater than 85%
same,CD107A+GRB+ cells,CD8+ and CD4+ TIL; [5],significant increase
same,Granzyme B (Grb) produced in TIL vs IL-2 alone,CD8+ and CD4+ TIL; [5],significant increase of Grb
same,CD4+ TIL capable of producing CD107a,CD8+ and CD4+ TIL; [6],greater than 60%
same,CD8+ TIL capable of producing CD107a,CD8+ and CD4+ TIL; [6],greater than 60%
same,"GMCSF, MIP1α, MIP1β and IP10 secreted during 14 day expansion in GREX",TIL; IL-2 + compound 103,trending increases
same,IFN-γ secreted during 14 day expansion in GREX,TIL; IL-2 + compound 103,significant increase of IFN-γ
same,"Secretion of IL-2, IL-5, IL-7, IL-21, IL-23, TNF-α, and IFN-γ upon stimulation","TIL; high dose IL-2 + 1 μM compound 103, 24 hours",significant secretion
same,Secretion of MIP1α and MIP1β upon stimulation,"TIL; high dose IL-2 + 1 μM compound 103, anti-CD3/CD28 24 hours",significant increases in secretion
